# Biological target: full-length ATR (Homo sapiens (Human), UniProt Q13535)
# Assay: ATR Inhibition Assay (radioactive-phosphate incorporation)
# Type: biochemical
# Details: not given
# Experimental: Compounds were screened for their ability to inhibit ATR kinase using a radioactive-phosphate incorporation assay. Assays were carried out in a mixture of 50 mM Tris/HCl (pH 7.5), 10 mM MgCl2 and 1 mM DTT. Final substrate concentrations were 10 μM [γ-33P]ATP (3 mCi 33P ATP/mmol ATP, Perkin Elmer) and 800 μM target peptide ([…]).
# Assays were carried out at 25° C. in the presence of 5 nM full-length ATR. An assay stock buffer solution was prepared containing all of the reagents listed above, with the exception of ATP and the test compound of interest. 13.5 μL of the stock solution was placed in a 96 well plate followed by addition of 2 μL of DMSO stock containing serial dilutions of the test compound (typically starting from a final concentration of 15 μM with 3-fold serial dilutions) in duplicate (final DMSO concentration 7%). The plate was pre-incubated for 10 minutes at 25° C. and the reaction initiated by addition of 15 μL [γ-33P]ATP (final concentration 10 μM).
# The reaction was stopped after 24 hours by the addition of 30 μL 0.1 M phosphoric acid containing 2 mM ATP. A multiscreen phosphocellulose filter 96-well plate (Millipore, Cat no. MAPHNOB50) was pretreated with 100 μL 0.2M phosphoric acid prior to the addition of 45 μL of the stopped assay mixture. The plate was washed with 5×200 μL 0.2M phosphoric acid. After drying, 100 μL Optiphase ‘SuperMix’ liquid scintillation cocktail (Perkin Elmer) was added to the well prior to scintillation counting (1450 Microbeta Liquid Scintillation Counter, Wallac).
# After removing mean background values for all of the data points, Ki(app) data were calculated from non-linear regression analysis of the initial rate data using the Prism software package (GraphPad Prism version 3.0cx for Macintosh, GraphPad Software, San Diego Calif., USA).
# Below is a chart showing the ATR Inhibition Ki values of compounds of the disclosure.
# full-length ATR, sequence (Q13535 whole entry): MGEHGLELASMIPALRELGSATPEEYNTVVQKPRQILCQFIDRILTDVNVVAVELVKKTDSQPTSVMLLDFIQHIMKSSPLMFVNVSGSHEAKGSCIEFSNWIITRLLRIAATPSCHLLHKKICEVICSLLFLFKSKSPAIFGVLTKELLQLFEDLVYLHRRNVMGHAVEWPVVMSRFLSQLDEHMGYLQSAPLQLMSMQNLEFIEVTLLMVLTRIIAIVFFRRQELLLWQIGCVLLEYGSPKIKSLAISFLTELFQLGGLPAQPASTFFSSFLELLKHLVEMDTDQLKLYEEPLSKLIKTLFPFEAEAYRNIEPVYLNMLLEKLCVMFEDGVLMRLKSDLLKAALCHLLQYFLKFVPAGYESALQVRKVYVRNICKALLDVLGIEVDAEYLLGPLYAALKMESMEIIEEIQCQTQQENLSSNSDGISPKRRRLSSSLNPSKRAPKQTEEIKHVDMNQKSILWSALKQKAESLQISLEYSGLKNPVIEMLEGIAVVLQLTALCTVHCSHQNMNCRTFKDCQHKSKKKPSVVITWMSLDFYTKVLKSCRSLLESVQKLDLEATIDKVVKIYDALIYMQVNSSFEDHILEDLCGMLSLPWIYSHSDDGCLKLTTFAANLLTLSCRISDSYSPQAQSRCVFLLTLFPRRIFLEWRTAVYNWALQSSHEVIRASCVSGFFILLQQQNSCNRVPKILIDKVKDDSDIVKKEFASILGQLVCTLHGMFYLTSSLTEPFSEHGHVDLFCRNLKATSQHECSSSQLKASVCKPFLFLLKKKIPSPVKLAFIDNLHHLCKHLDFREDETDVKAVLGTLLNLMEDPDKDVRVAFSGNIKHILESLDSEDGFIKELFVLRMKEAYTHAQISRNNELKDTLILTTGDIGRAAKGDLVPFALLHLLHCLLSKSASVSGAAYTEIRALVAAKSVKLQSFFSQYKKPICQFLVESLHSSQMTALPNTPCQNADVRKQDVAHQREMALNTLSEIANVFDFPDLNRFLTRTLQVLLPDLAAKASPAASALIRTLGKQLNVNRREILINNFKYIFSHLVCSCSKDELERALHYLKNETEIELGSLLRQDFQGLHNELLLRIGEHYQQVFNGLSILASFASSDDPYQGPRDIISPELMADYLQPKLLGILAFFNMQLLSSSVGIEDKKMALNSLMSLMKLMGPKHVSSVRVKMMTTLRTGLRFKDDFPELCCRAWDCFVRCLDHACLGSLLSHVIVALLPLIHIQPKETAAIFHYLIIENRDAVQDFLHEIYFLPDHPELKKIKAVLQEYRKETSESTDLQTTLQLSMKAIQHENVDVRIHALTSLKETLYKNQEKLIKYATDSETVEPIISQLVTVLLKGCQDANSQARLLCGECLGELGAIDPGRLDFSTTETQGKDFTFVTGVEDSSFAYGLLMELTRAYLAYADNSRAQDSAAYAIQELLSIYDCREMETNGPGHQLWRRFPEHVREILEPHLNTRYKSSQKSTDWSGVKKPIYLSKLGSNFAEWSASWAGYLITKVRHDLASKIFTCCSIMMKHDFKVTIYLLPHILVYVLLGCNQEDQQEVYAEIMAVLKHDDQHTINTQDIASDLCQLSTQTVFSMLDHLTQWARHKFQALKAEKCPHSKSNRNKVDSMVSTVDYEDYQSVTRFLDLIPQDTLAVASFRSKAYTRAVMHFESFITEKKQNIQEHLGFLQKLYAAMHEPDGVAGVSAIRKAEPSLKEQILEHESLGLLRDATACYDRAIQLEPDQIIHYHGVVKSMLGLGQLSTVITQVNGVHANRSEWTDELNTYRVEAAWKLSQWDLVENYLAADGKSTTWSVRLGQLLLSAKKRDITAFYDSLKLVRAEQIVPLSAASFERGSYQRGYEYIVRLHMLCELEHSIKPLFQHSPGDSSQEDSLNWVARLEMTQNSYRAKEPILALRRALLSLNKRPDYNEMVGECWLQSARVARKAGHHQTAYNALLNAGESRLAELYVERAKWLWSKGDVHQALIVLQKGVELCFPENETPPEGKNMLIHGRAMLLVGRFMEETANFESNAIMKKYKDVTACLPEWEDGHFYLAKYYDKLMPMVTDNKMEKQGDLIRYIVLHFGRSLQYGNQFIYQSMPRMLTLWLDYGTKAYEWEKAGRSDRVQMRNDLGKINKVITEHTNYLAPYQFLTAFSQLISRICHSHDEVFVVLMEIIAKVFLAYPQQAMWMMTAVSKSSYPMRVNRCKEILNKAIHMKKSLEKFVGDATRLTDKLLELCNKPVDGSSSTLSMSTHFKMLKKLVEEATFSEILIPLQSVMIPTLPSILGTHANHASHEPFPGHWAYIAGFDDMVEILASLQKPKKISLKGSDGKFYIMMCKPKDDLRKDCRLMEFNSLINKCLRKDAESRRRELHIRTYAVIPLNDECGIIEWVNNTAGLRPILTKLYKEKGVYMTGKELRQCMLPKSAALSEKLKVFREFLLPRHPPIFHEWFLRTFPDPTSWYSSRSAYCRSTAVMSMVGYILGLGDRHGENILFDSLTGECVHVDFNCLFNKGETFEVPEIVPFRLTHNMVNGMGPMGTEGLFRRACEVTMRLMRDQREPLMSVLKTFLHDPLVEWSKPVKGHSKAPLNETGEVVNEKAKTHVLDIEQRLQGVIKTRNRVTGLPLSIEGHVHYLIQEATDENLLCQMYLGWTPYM
row,Structure (SMILES),Ki [nM]
1,CNCc1ccc(-c2nnc(-c3nc(-c4ccc(=O)n(C5CCOC5)c4)cnc3N)o2)c(OC)c1 (stereo not shown) [Compound I-8],5 to 50
2,Nc1ncc(-c2ccc(=O)n(C3CCCC3)c2)nc1-c1cc(-c2ccc(CN3CCCC3)cc2)no1 [Compound I-51],5 to 50
3,CC(C)(CO)NCc1ccc(-c2cc(-c3nc(-c4ccc(=O)n(C5CCCC5)c4)cnc3N)on2)cc1 [Compound I-52],5 to 50
4,CC(C)n1cc(-c2cnc(N)c(-c3cc(-c4ccc(CNc5ccccc5)cc4)no3)n2)ccc1=O [Compound I-65],50 to 100

# Other lines, results leading:
row,Ki [nM],Structure (SMILES)
1,5 to 50,CNCc1ccc(-c2nnc(-c3nc(-c4ccc(=O)n(CCOC)c4)cnc3N)o2)cc1 [Compound I-2]
2,5 to 50,CNCc1ccc(-c2nnc(-c3nc(-c4ccc(=O)n(CCO)c4)cnc3N)o2)cc1 [Compound I-4]
3,50 to 100,CNCc1ccc(-c2nnc(-c3nc(-c4ccc(=O)n(CCCN)c4)cnc3N)o2)cc1 [Compound I-5]
4,5 to 50,CNCc1ccc(-c2nnc(-c3nc(-c4ccc(=O)n(C5CCOC5)c4)cnc3N)o2)cc1 (stereo not shown) [Compound I-9]
5,5 to 50,"CNCc1ccc(-c2nnc(-c3nc(-c4ccc(=O)n(CCN(C)C)c4)cnc3N)o2)c(C)c1 [Compound I-24, 5-[5-amino-6-[5-[2-methyl-4-(methylaminomethyl)phenyl]-1,3,4-oxadiazol-2-yl]pyrazin-2-yl]-1-(2-dimethylaminoethyl)pyridin-2-one]"
6,5 to 50,"CNCc1ccc(-c2nnc(-c3nc(-c4ccc(=O)n(C(C)C(=O)O)c4)cnc3N)o2)c(C)c1 (stereo not shown) [Compound I-38, 2-[5-[5-amino-6-[5-[2-methyl-4-(methylaminomethyl)phenyl]-1,3,4-oxadiazol-2-yl]pyrazin-2-yl]-2-oxo-1-pyridyl]propanoic acid]"
7,5 to 50,"CNCc1cccc(-c2nnc(-c3nc(-c4ccc(=O)n(C(C)C)c4)cnc3N)o2)c1 [Compound I-47, 5-[5-amino-6-[5-[3-(methylaminomethyl)phenyl]-1,3,4-oxadiazol-2-yl]pyrazin-2-yl]-1-isopropyl-pyridin-2-one]"

# Same assay, conditions: ATR Inhibition Ki(app); 10 μM ATP, 800 μM target peptide, 5 nM full-length ATR, 25° C.
row,Structure (SMILES),Ki [nM]
1,"Cc1cc(CN[C@H]2CCOC2)ccc1-c1nnc(-c2nc(-c3ccc(=O)n(C(C)C)c3)cnc2N)o1 [Compound I-13, 5-[5-amino-6-[5-[2-methyl-4-[[[(3S)-tetrahydrofuran-3-yl]amino]methyl]phenyl]-1,3,4-oxadiazol-2-yl]pyrazin-2-yl]-1-isopropyl-pyridin-2-one]",≤ 5
2,CNCc1ccc(-c2nnc(-c3nc(-c4ccc(=O)n(C5CCCC5)c4)cnc3N)o2)c(C)c1 [Compound I-14],≤ 5
3,CNCc1ccc(-c2nnc(-c3nc(-c4ccc(=O)n(C(C)COC)c4)cnc3N)o2)c(C)c1 (stereo not shown) [Compound I-17],≤ 5
4,CNCc1ccc(-c2nnc(-c3nc(-c4ccc(=O)n(C(C)C5CC5)c4)cnc3N)o2)c(C)c1 (stereo not shown) [Compound I-18],≤ 5
5,Cc1cc(CNC(C)C)ccc1-c1nnc(-c2nc(-c3ccc(=O)n(C(C)C)c3)cnc2N)o1 [Compound I-20],≤ 5
6,Cc1cc(CNC(C)(C)C)ccc1-c1nnc(-c2nc(-c3ccc(=O)n(C(C)C)c3)cnc2N)o1 [Compound I-21],≤ 5
7,CC(C)n1cc(-c2cnc(N)c(-c3cc(-c4ccc(CN[C@H]5CCOC5)cc4)no3)n2)ccc1=O [Compound I-23],≤ 5
8,CCC(C)n1cc(-c2cnc(N)c(-c3nnc(-c4ccc(CNC)cc4OC)o3)n2)ccc1=O (stereo not shown) [Compound I-25],≤ 5
9,CNCc1ccc(-c2cc(-c3nc(-c4ccc(=O)n(C(C)C)c4)cnc3N)on2)c(F)c1 [Compound I-29],≤ 5
10,CC#CC(C)n1cc(-c2cnc(N)c(-c3nnc(-c4ccc(CNC)cc4C)o3)n2)ccc1=O (stereo not shown) [Compound I-30],≤ 5
11,CNCc1ccc(-c2nnc(-c3nc(-c4ccc(=O)n(C5CCC5)c4)cnc3N)o2)c(C)c1 [Compound I-33],≤ 5
12,"CNCc1ccc(-c2nnc(-c3nc(-c4ccc(=O)n(C(C)C#N)c4)cnc3N)o2)c(OC)c1 (stereo not shown) [Compound I-34, 2-[5-[5-amino-6-[5-[2-methoxy-4-(methylaminomethyl)phenyl]-1,3,4-oxadiazol-2-yl]pyrazin-2-yl]-2-oxo-1-pyridyl]propanenitrile]",≤ 5
13,COc1cc(CNC(C)(C)C)ccc1-c1nnc(-c2nc(-c3ccc(=O)n(C(C)C)c3)cnc2N)o1 [Compound I-35],≤ 5
14,CC(C)n1cc(-c2cnc(N)c(-c3nnc(-c4ccc(CNC(C)(C)C)cc4C#N)o3)n2)ccc1=O [Compound I-40],5 to 50
15,CNCc1ccc(-c2nnc(-c3nc(-c4ccc(=O)n(C(C)C(F)(F)F)c4)cnc3N)o2)c(OC)c1 (stereo not shown) [Compound I-41],≤ 5
16,CC(C)n1cc(-c2cnc(N)c(-c3nnc(-c4cccc(CNC(C)(C)C)c4)o3)n2)ccc1=O [Compound I-46],50 to 100

row,Structure (SMILES),Ki [nM]
1,CNCc1ccc(-c2cc(-c3nc(-c4ccc(=O)n(C5CCCC5)c4)cnc3N)on2)c(F)c1 [Compound I-56],≤ 5
2,CC(C)n1cc(-c2cnc(N)c(-c3cc(-c4ccc(C(N)CF)cc4)no3)n2)ccc1=O (stereo not shown) [Compound I-59],5 to 50
3,CNCc1ccc(-c2cc(-c3nc(-c4ccc(=O)n(C5CCOCC5)c4)cnc3N)on2)cc1 [Compound I-66],≤ 5
4,C=Cc1cc(-c2cnc(N)c(-c3cc(-c4ccc(CNC)cc4)no3)n2)cn(C(C)C)c1=O [Compound I-67],50 to 100
5,CNCc1ccc(-c2cc(-c3nc(-c4ccc(=O)n(Cc5ccoc5)c4)cnc3N)on2)cc1 [Compound I-69],≤ 5
6,CNCc1ccc(-c2cc(-c3nc(-c4ccc(=O)n(CCN5CCCC5=O)c4)cnc3N)on2)cc1 [Compound I-70],≤ 5
7,CNCc1ccc(-c2cc(-c3nc(-c4cc(Br)c(=O)n(C(C)C)c4)cnc3N)on2)cc1 [Compound I-71],5 to 50
8,CCc1cc(-c2cnc(N)c(-c3cc(-c4ccc(CNC)cc4)no3)n2)cn(C(C)C)c1=O [Compound I-75],50 to 100
9,CNCc1ccc(-c2cc(-c3nc(-c4ccc(=O)[nH]c4)cnc3N)on2)cc1 [Compound I-76],5 to 50
10,CNCc1ccc(-c2cc(-c3nc(-c4ccc(=O)n(C(C)C5CC5)c4)cnc3N)on2)cc1 (stereo not shown) [Compound I-79],≤ 5
11,CNCc1ccc(-c2cc(-c3nc(-c4ccc(=O)n(CC5CCCO5)c4)cnc3N)on2)cc1 (stereo not shown) [Compound I-86],≤ 5
12,CNCc1ccc(-c2cc(-c3nc(-c4c[nH]c(=O)c(CO)c4)cnc3N)on2)cc1 [Compound I-88],≤ 5
13,CNCc1ccc(-c2cc(-c3nc(-c4ccc(=O)n(C(C)C(=O)NC)c4)cnc3N)on2)cc1 (stereo not shown) [Compound I-91],≤ 5
14,CC(C#N)n1cc(-c2cnc(N)c(-c3cc(-c4ccc(CNC5CC5)cc4)no3)n2)ccc1=O (stereo not shown) [Compound I-99],≤ 5
15,CNCc1ccc(-c2cc(-c3nc(-c4c[nH]c(=O)c(C(C)C)c4)cnc3N)on2)cc1 [Compound I-100],≤ 5

# Second part, the molecule after the results:
row,Ki [nM],Structure (SMILES)
1,5 to 50,CNCc1ccc(-c2nnc(-c3nc(-c4ccc(=O)n(C)c4)cnc3N)o2)cc1 [Compound I-1]
2,5 to 50,CNCc1ccc(-c2nnc(-c3nc(-c4ccc(=O)n(CC#N)c4)cnc3N)o2)cc1 [Compound I-7]
3,≤ 5,CNCc1ccc(-c2nnc(-c3nc(-c4ccc(=O)n(C(C)C)c4)cnc3N)o2)c(F)c1 [Compound I-10]
4,≤ 5,CNCc1ccc(-c2nnc(-c3nc(-c4ccc(=O)n(C(C)C)c4)cnc3N)o2)c(C)c1 [Compound I-12]
5,≤ 5,CNCc1ccc(-c2nnc(-c3nc(-c4ccc(=O)n(C(C)C#N)c4)cnc3N)o2)c(C)c1 (stereo not shown) [Compound I-16]
6,≤ 5,CCn1cc(-c2cnc(N)c(-c3nnc(-c4ccc(CNC)cc4OC)o3)n2)ccc1=O [Compound I-19]
7,≤ 5,CNCc1ccc(-c2nnc(-c3nc(-c4ccc(=O)n(CC(C)C)c4)cnc3N)o2)c(OC)c1 [Compound I-26]
8,≤ 5,CNCc1ccc(-c2nnc(-c3nc(-c4ccc(=O)n(CC(F)(F)F)c4)cnc3N)o2)c(C)c1 [Compound I-27]
9,≤ 5,CNCc1ccc(-c2nnc(-c3nc(-c4ccc(=O)n(CC(F)(F)F)c4)cnc3N)o2)c(OC)c1 [Compound I-28]
10,5 to 50,CNCc1ccc(-c2nnc(-c3nc(-c4ccc(=O)n(C(C)CF)c4)cnc3N)o2)c(C)c1 (stereo not shown) [Compound I-31]
11,≤ 5,CNCc1ccc(-c2nnc(-c3nc(-c4ccc(=O)n(C(C)CO)c4)cnc3N)o2)c(OC)c1 (stereo not shown) [Compound I-36]
12,5 to 50,CC(N)c1ccc(-c2nnc(-c3nc(-c4ccc(=O)n(C(C)C)c4)cnc3N)o2)cc1 (stereo not shown) [Compound I-45]
13,≤ 5,CNCc1ccc(-c2cc(-c3nc(-c4ccc(=O)n(Cc5nccs5)c4)cnc3N)on2)cc1 [Compound I-84]
14,≤ 5,CNCc1ccc(-c2cc(-c3nc(-c4ccc(=O)n(Cc5nccn5C)c4)cnc3N)on2)cc1 [Compound I-85]
15,≤ 5,CNCc1ccc(-c2cc(-c3nc(-c4ccc(=O)n(CCOC)c4)cnc3N)on2)cc1 [Compound I-95]
16,≤ 5,CNCc1ccc(-c2cc(-c3nc(-c4ccc(=O)n(CC(N)=O)c4)cnc3N)on2)cc1 [Compound I-98]

# Reference: patent publication US9630956B2, “Compounds useful as inhibitors of ATR kinase” (Vertex Pharmaceuticals Incorporated, priority 2010, dated 2017)
